Measurements taken from patent US20090012067A1, “Modulation of Hypothalamic Atp-Sensitive Potassium Channels” (priority 2005, published 2009).
Each block holds one compound with its values, some of them ahead of it.

Experiments:
[1] = tested on: KATP channels within the medial hypothalamus; test: Intrahypothalamic (IH) infusion of diazoxide or insulin with pancreatic-insulin clamp; assay type: in vivo, Sprague-Dawley rats; details: for rate of glucose infusion required to prevent hypoglycemia: IH infusion during a pancreatic clamp, vs vehicle; for blood glucose levels / GP (glucose production): IH infusion; for blood glucose levels: bilateral, medial hypothalamus, total dose insulin 2 μU; for GP (glucose production): basal circulating insulin
Excerpt: Animal preparation for the in vivo experiments. Rats. Eighty-nine 10-week-old male Sprague-Dawley rats (Charles River Breeding Laboratories, Wilmington, Mass.) were studied. Rats were housed in individual cages and subjected to a standard light-dark cycle. Three weeks prior to the in vivo studies, chronic catheters were implanted in the third cerebral ventricle (Obici et al., 2003; Liu et al., 1998) or intrahypothalamically (Morton et al., 2003) (IH) by stereotaxic surgery. One week before the pancreatic-insulin clamp protocols, rats received additional catheters in the right internal jugular and left carotid artery (FIG. 5) (Obici et al., 2003; Liu et al., 1998). In vivo studies. For the studies in rats, the metabolic experiments were performed ˜3 weeks after stereotaxic surgery following complete recovery from the operation (FIG. 5). All solutions were diluted with artificial cerebral spinal fluid (aCSF). […] Pancreatic-insulin clamp studies were performed as previously described (Liu et al., 1998). Euglycemic-hyperinsulinemic clamps in conscious, unrestrained, catheterized mice were performed for 90 min as previously described (Obici et al., 2003; Liu et al., 1998).

[2] = tested on: hypothalamic KATP channels; test: central infusion in rats on a high fat diet for three days (hepatic insulin resistance), glucose production; assay type: in vivo; details: plasma insulin 20 μU/ml
Experimental: Additional experiments were also performed in rats maintained on a high fat diet regimen for three days.

G6Pase = test: liver G6Pase mRNA by real-time PCR after the infusions; assay type: in vivo, Sprague-Dawley rats
Excerpt: (§1) Gene expression. Gluconeogenic enzymes. Quantitative analysis of gene expression was done using RT-PCR. Total RNA was isolated with Trizol (Invitrogen) and single-strand cDNA was synthesized with a kit provided by Invitrogen. Real-time PCR reactions and the primers for G6Pase and PEPCK were done as described (Pocai et al., in press). The copy number of each transcript was derived from a standard curve of cloned target templates. Expression of each transcript was normalized to copy number for 18s ribosomal protein.

PEPCK = test: liver PEPCK mRNA by real-time PCR after the infusions; assay type: in vivo, Sprague-Dawley rats
Excerpt: as §1

central KATP channels = test: ICV infusion of diazoxide with pancreatic-insulin clamp (1 mU/kg·min) in conscious rats; assay type: in vivo, Sprague-Dawley rats
Excerpt: Animal preparation for the in vivo experiments. Rats. Eighty-nine 10-week-old male Sprague-Dawley rats (Charles River Breeding Laboratories, Wilmington, Mass.) were studied. Rats were housed in individual cages and subjected to a standard light-dark cycle. Three weeks prior to the in vivo studies, chronic catheters were implanted in the third cerebral ventricle (Obici et al., 2003; Liu et al., 1998) or intrahypothalamically (Morton et al., 2003) (IH) by stereotaxic surgery. One week before the pancreatic-insulin clamp protocols, rats received additional catheters in the right internal jugular and left carotid artery (FIG. 5) (Obici et al., 2003; Liu et al., 1998). In vivo studies. For the studies in rats, the metabolic experiments were performed ˜3 weeks after stereotaxic surgery following complete recovery from the operation (FIG. 5). All solutions were diluted with artificial cerebral spinal fluid (aCSF). […] Pancreatic-insulin clamp studies were performed as previously described (Liu et al., 1998). Euglycemic-hyperinsulinemic clamps in conscious, unrestrained, catheterized mice were performed for 90 min as previously described (Obici et al., 2003; Liu et al., 1998). Hepatic glucose fluxes. Rate of hepatic glucose fluxes was determined as described. Barzilai et al., 1997).

[3] = tested on: hypothalamic KATP channels; test: ICV infusion of insulin, KATP channel blocker (glibenclamide) or both with pancreatic-insulin clamp (1 mU/kg·min); assay type: in vivo, Sprague-Dawley rats; details: for Direct: ICV infusion, direct pathway; for glucose infusion needed to prevent hypoglycemia: near basal circulating insulin levels
Excerpt: Animal preparation for the in vivo experiments. Rats. Eighty-nine 10-week-old male Sprague-Dawley rats (Charles River Breeding Laboratories, Wilmington, Mass.) were studied. Rats were housed in individual cages and subjected to a standard light-dark cycle. Three weeks prior to the in vivo studies, chronic catheters were implanted in the third cerebral ventricle (Obici et al., 2003; Liu et al., 1998) or intrahypothalamically (Morton et al., 2003) (IH) by stereotaxic surgery. […] In vivo studies. For the studies in rats, the metabolic experiments were performed ˜3 weeks after stereotaxic surgery following complete recovery from the operation (FIG. 5). All solutions were diluted with artificial cerebral spinal fluid (aCSF). […] Euglycemic-hyperinsulinemic clamps in conscious, unrestrained, catheterized mice were performed for 90 min as previously described (Obici et al., 2003; Liu et al., 1998). Hepatic glucose fluxes. Rate of hepatic glucose fluxes was determined as described. Barzilai et al., 1997).

[4] = tested on: hepatic glucose production; test: pancreatic-hyperinsulinemic clamp (insulin 3 mU/kg·min) in SHAM and HV rats; assay type: in vivo, Sprague-Dawley rats; details: for suppression of GP (glucose production): hyperinsulinemia ~3-fold over basal; for Direct / % Indirect: systemic insulin (3 mU); for Direct: direct pathway; for % Indirect: indirect pathway
Experimental: Panel A is a schematic representation of the pancreatic-hyperinsulinemic clamp procedure. At t=120 an infusion of labeled glucose was initiated and maintained for the remaining 4 hours of the study and a pancreatic hyperinsulinemic clamp was initiated at t=240 min and lasted for 2 hours. […] The figure is a longitudinal view of a rat brain, with olfactory bulb at the anterior end on the left and the caudal hindbrain on the right.
(§2) In vivo studies. For the studies in rats, the metabolic experiments were performed ˜3 weeks after stereotaxic surgery following complete recovery from the operation (FIG. 5). All solutions were diluted with artificial cerebral spinal fluid (aCSF). […] Euglycemic-hyperinsulinemic clamps in conscious, unrestrained, catheterized mice were performed for 90 min as previously described (Obici et al., 2003; Liu et al., 1998).
(§3) Selective hepatic branch vagotomy. One week before the clamp procedure a subgroup of rats underwent selective hepatic vagotomy (HV) or sham operation (SHAM). Anatomical nerve transactions was verified in each rat at sacrifice by microscopic observation of the absence of vagal nerve fibers in between the two silk sutures that had been placed along the trunk at the time of transection (la Fleur et al., 2003).
(§4) Hepatic glucose fluxes. Rate of hepatic glucose fluxes was determined as described. Barzilai et al., 1997).

[5] = molecular target: T1, hypothalamic insulin receptors (Rattus norvegicus, UniProt P15127); test: ICV insulin in rats with hepatic branch vagotomy (HV), sham operation or vagal deafferentation, pancreatic-insulin clamp (1 mU/kg·min); assay type: in vivo, Sprague-Dawley rats
T1 construct: Paired groups of SHAM and HV rats received an ICV infusion of either insulin or vehicle; from tissue; host or cells: CNS / hypothalamus of living Sprague-Dawley rats (ICV infusion)
Excerpt: Animal preparation for the in vivo experiments. Rats. Eighty-nine 10-week-old male Sprague-Dawley rats (Charles River Breeding Laboratories, Wilmington, Mass.) were studied. Rats were housed in individual cages and subjected to a standard light-dark cycle. Three weeks prior to the in vivo studies, chronic catheters were implanted in the third cerebral ventricle (Obici et al., 2003; Liu et al., 1998) or intrahypothalamically (Morton et al., 2003) (IH) by stereotaxic surgery.
as §2, §3
Selective vagal deafferentation. Nerve transection was performed as previously described, according to the methods of Norgren and Smith (Norgren & Smith, 1998).
as §4

[6] = ICV insulin with or without KATP channel blocker
[7] = selective vagal deafferentation, ability of central insulin not altered

T1 sequence (P15127 27-759 limits assumed): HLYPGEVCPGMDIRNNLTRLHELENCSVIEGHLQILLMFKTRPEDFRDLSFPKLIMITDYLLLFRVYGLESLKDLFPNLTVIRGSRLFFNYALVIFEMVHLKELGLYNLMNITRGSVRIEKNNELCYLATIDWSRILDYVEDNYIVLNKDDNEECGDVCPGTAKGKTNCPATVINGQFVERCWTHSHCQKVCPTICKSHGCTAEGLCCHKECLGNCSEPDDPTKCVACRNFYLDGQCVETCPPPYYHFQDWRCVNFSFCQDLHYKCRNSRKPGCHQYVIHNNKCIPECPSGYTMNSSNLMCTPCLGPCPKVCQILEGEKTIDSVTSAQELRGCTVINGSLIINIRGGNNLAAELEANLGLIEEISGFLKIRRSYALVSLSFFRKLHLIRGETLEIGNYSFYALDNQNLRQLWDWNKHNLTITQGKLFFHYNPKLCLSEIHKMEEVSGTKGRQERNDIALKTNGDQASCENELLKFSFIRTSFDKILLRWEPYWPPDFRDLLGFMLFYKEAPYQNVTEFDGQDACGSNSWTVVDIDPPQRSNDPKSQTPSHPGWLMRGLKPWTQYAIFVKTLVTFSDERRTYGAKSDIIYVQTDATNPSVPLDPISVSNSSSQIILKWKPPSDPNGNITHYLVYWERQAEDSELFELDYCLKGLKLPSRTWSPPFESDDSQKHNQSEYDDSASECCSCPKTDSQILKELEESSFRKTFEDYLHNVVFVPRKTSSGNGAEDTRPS
T1 sequence (P15127 764-1383 partner limits assumed): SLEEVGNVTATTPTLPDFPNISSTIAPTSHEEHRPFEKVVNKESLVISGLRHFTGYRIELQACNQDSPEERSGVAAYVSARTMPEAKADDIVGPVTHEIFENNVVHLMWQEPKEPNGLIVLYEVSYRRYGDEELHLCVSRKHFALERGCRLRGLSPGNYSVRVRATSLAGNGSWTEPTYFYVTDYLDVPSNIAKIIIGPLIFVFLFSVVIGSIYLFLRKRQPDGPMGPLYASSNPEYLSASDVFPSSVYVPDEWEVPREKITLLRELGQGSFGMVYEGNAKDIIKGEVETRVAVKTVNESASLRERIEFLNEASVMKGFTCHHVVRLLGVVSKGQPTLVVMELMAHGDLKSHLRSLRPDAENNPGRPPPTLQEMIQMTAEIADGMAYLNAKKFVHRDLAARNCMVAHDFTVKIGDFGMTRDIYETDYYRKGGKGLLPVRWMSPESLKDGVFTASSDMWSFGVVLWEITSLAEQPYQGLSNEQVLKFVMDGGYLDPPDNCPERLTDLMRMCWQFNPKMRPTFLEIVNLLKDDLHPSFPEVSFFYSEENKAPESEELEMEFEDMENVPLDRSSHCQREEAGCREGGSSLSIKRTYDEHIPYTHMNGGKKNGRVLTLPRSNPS

Compound: CC1=NS(=O)(=O)c2cc(Cl)ccc2N1 [diazoxide, reference compound]
rate of glucose infusion required to prevent hypoglycemia [1]: significant increases
blood glucose levels [1]: lowered blood glucose levels
GP (glucose production) [1]: marked suppression of GP
inhibition of glucose production ([2]; ICV or intrahypothalamic infusion): ~45%
liver G6Pase mRNA levels (G6Pase; ICV diazoxide study): markedly decreased
liver PEPCK mRNA levels (PEPCK; ICV diazoxide study): markedly decreased
glucose cycling (central KATP channels; ICV): significantly reduced
in vivo flux through G6Pase (central KATP channels; ICV): decreased the flux through G6Pase
Direct (central KATP channels; ICV infusion, direct pathway): 14.37 ± 2.2%
decrease in GP (glucose production) (central KATP channels; ICV, 1.5 nmol, basal insulin levels (~20 μU/ml)): 45±4%
glucose infusion needed to prevent hypoglycemia (central KATP channels; ICV, basal circulating insulin levels): glucose infusion was required to prevent hypoglycemia

Compound: COc1ccc(Cl)cc1C(=O)NCCc1ccc(S(=O)(=O)NC(=O)NC2CCCCC2)cc1 [glibenclamide, 5-Chloro-N-[2-[4-(3-cyclohexylureidosulfonyl)phenyl]-ethyl]-2-methoxybenzamide, reference compound]
Direct [3]: 18.5 ± 2.8%
GP (glucose production) ([3]; ICV, blocker alone or co-infused with insulin): did not per se affect GP
glucose infusion needed to prevent hypoglycemia ([3]; ICV): did not modify the rate of glucose infusion

^14C-PEP ([5]; HV, ICV): 5.5 ± 1.4 dpm/nmol
glucose infusion needed to prevent hypoglycemia ([5]; HV, ICV insulin): not in the HV rats
hepatic glucose fluxes ([5]; HV, ICV insulin): failed to affect hepatic glucose fluxes
^3H-Glucose Plasma SA ([5]; SHAM, ICV): 43.1 ± 1.9 dpm/nmol
^3H-UDPglucose Liver SA ([5]; SHAM, ICV): 5.5 ± 0.5 dpm/nmol
gluconeogenesis ([5]; SHAM, ICV insulin): marked inhibition of gluconeogenesis
in vivo flux through G6Pase ([5]; SHAM, ICV insulin): markedly decreased
Direct ([5]; SHAM, ICV, direct pathway): 12.1 ± 0.7%
rate of glucose uptake ([5]; either SHAM or HV rats, ICV): not significantly affected
GP (glucose production) [5, 7]: suppress GP
blood glucose levels [5, 7]: lower blood glucose levels
Compound: insulin
rate of glucose infusion required to prevent hypoglycemia [1]: significant increases
blood glucose levels [1]: reproduced the potent effects of ICV insulin or diazoxide
GP (glucose production) [1]: reproduced the potent effects of ICV insulin or diazoxide
Glucose ([4]; HV, Clamp, systemic insulin 3 mU/Kg·min): 8.1 ± 0.5 mM
suppression of GP (glucose production) ([4]; HV): 38±11%
Direct ([4]; HV): 22.0 ± 2.3%
% Indirect ([4]; HV): 60.7 ± 9.4 %
suppression of GP (glucose production) ([4]; SHAM): 80±8%
Direct ([4]; SHAM): 22.8 ± 3.9%
% Indirect ([4]; SHAM): 34.5 ± 6.7%
glucose production ([2]; central administration): failed to significantly inhibit glucose production
liver G6Pase mRNA levels (G6Pase; [6]): marked KATP channels dependent decreases
liver G6Pase mRNA levels (G6Pase; SHAM, ICV insulin): marked decrease
liver PEPCK mRNA levels (PEPCK; HV, ICV insulin): not in HV rats
liver PEPCK mRNA levels (PEPCK; [6]): marked KATP channels dependent decreases
liver PEPCK mRNA levels (PEPCK; SHAM, ICV insulin): marked decrease
in vivo flux through G6Pase ([3]; ICV): markedly decreased
Direct [3]: 12.1 ± 0.7%
decrease in GP (glucose production) ([3]; ICV insulin 30 μU, basal and equal insulin levels (~20 μU/ml)): 52±8%
glucose infusion needed to prevent hypoglycemia ([3]; ICV): glucose infusion was required to prevent hypoglycemia
rate of glucose disposal (uptake) ([3]; ICV, pancreatic-insulin clamp): not significantly affected
glucose infusion needed to prevent hypoglycemia ([5]; SHAM, ICV insulin): glucose infusion was required to prevent hypoglycemia
